Results as given in PMC9403976, “Elucidating the path to Plasmodium prolyl-tRNA synthetase inhibitors that overcome halofuginone resistance” (Nature Communications, 2022).
Values joined by “and” are separate entries in the source; they are usually repeats but may differ in a detail not shown here. Equal entries are not always repeated. Where two headings read alike, the source gives them in different places.

Key:
HsProRS = HsProRS (Homo sapiens, UniProt P07814); test: TR-FRET ligand displacement assay with tracer MAT379 (CoraFluor-1-Halo and anti-His6 antibody formats); assay type: binding; design: made in house; host or cells: E. coli SoluBL-21; conditions: for normalized TR-FRET ligand displacement signal, dose-response replicates (SI Fig 6) / TR-FRET dose-response, normalized signal (SI Fig 11) / normalized TR-FRET signal (dose-response replicates): listed as Halofuginone (1); for TR-FRET dose-response, normalized signal (SI Fig 11): individual replicates; for normalized TR-FRET signal (dose-response replicates): SI Fig 15, antibody format
Sequence of HsProRS (P07814 996-1512): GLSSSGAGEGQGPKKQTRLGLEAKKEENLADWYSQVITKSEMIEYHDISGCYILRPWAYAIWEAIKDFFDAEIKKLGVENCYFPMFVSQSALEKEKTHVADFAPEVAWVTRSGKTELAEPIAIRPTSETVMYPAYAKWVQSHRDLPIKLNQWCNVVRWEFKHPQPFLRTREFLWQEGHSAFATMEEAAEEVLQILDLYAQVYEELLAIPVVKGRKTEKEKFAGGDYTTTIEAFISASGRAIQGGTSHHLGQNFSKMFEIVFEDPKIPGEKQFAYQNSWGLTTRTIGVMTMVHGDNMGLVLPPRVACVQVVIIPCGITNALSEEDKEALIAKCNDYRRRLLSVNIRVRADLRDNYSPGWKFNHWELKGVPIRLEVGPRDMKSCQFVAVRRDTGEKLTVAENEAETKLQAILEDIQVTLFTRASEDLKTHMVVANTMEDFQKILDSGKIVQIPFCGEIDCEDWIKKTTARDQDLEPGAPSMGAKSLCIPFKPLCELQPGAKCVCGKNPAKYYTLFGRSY

[1] = test system: halofuginone-induced P. falciparum (elevated proline homeostasis); test: P. falciparum ABS growth assay, SYBR Green, 72 h, halofuginone-induced parasites; assay type: cell-based, Plasmodium falciparum; conditions: Halofuginone-Induced
How it was run: (§1)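 SYBR Green 1 fluorescence after 72 h quantified growth of erythrocytic-stage Dd2 lines seeded at 1% parasitemia and 1% hematocrit. Compounds were tested in triplicate dose-response format in RPMI with 0.5% Albumax, referenced to 10 μM dihydroartemisinin and untreated wells.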

[2] = test system: halofuginone-induced P. falciparum (elevated proline homeostasis); conditions: within five generations (10 days); cited from earlier work
[3] = test system: HFGR-I P. falciparum (elevated proline homeostasis and PfcProRS^L482H); test: P. falciparum ABS growth assay, SYBR Green, 72 h, HFGR-I parasites; assay type: cell-based, Plasmodium falciparum; conditions: HFGR-I, listed as Halofuginone (1)
How it was run: as §1

PfcProRS = molecular target: T1, PfcProRS (Plasmodium falciparum, UniProt Q8I5R7); assay type: binding; conditions: for dose-response signal (normalized), SI Fig 8: single replicates, listed as Halofuginone (1)
T1 construct: made in house; host or cells: E. coli SoluBL-21
T1 sequence (Q8I5R7 249-746): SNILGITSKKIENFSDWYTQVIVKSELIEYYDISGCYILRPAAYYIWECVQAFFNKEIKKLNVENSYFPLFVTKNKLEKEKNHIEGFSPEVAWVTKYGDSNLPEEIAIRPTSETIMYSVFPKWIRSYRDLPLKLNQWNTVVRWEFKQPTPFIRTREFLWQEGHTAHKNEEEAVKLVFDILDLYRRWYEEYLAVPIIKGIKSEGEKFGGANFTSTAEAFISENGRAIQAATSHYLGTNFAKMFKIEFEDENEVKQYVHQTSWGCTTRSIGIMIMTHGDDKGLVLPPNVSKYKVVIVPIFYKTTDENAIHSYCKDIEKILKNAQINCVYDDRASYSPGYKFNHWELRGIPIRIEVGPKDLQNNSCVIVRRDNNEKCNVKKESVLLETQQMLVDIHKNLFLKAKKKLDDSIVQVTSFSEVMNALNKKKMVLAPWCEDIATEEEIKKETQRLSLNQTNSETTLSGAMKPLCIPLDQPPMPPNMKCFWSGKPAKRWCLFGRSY

## O=C(CC1NCCCC1O)Cn1cnc2cc(Br)c(Cl)cc2c1=O (centres unmarked) [Halofuginone]
HsProRS; Log[inhibitor] (M) -8.398
  normalized TR-FRET ligand displacement signal, dose-response replicates (SI Fig 6): 1.06E+00 and 1.03E+00 and 1.05E+00
HsProRS; Log[inhibitor] (M) -8.585
  normalized TR-FRET ligand displacement signal, dose-response replicates (SI Fig 6): 1.04E+00 and 1.03E+00 and 1.02E+00
HsProRS; Log[inhibitor] (M) -8.612
  normalized TR-FRET signal (Fig 2j): 1.10E+00 and 1.01E+00 and 9.98E-01
  TR-FRET dose-response, normalized signal (SI Fig 11): 9.43E-01 and 9.93E-01 and 8.80E-01
HsProRS; Log[inhibitor] (M) -8.913
  normalized TR-FRET signal (Fig 2j): 1.04E+00 and 1.15E+00 and 9.02E-01
  TR-FRET dose-response, normalized signal (SI Fig 11): 9.29E-01 and 9.23E-01 and 1.01E+00
HsProRS; Log[inhibitor] (M) -9.214
  normalized TR-FRET signal (Fig 2j): 9.13E-01 and 9.87E-01 and 1.00E+00
  TR-FRET dose-response, normalized signal (SI Fig 11): 1.03E+00 and 9.64E-01 and 9.56E-01
HsProRS; Log[inhibitor] (M) -7
  normalized TR-FRET signal (dose-response replicates): -5.10E-02 and 1.45E-01 and 6.11E-02 and -8.68E-02 and 8.71E-02 and -1.63E-01
HsProRS; Log[inhibitor] (M) -7.301
  normalized TR-FRET signal (dose-response replicates): -1.11E-01 and 1.65E-02 and 1.81E-01 and 1.03E-01 and -9.48E-02 and 1.44E-01
HsProRS; Log[inhibitor] (M) -7.602
  normalized TR-FRET signal (dose-response replicates): -2.32E-02 and 2.15E-01 and 1.05E-01 and 1.32E-01 and 1.04E-01 and 2.19E-02
HsProRS; Log[inhibitor] (M) -7.902
  normalized TR-FRET signal (dose-response replicates): 1.55E-01 and 5.85E-02 and 2.37E-01 and 1.20E-01 and -3.85E-02 and 1.09E-01
HsProRS; Log[inhibitor] (M) -8.206
  normalized TR-FRET signal (dose-response replicates): 1.08E-02 and 1.11E-01 and 2.70E-01 and 1.81E-01 and 6.79E-02 and 2.75E-01
HsProRS; Log[inhibitor] (M) -8.507
  normalized TR-FRET signal (dose-response replicates): 1.46E-01 and 1.20E-01 and 1.73E-01 and 3.30E-01 and 1.53E-01 and 2.25E-01
HsProRS; Log[inhibitor] (M) -8.797
  normalized TR-FRET signal (dose-response replicates): 4.78E-02 and 3.34E-01 and 2.48E-01 and 1.28E-01 and 3.36E-01 and 3.00E-01
HsProRS; Log[inhibitor] (M) -9.098
  normalized TR-FRET signal (dose-response replicates): 4.47E-01 and 3.74E-01 and 3.80E-01 and 4.11E-01 and 4.02E-01 and 4.65E-01
HsProRS; Log[inhibitor] (M) -9.407
  normalized TR-FRET signal (dose-response replicates): 2.38E-01 and 7.71E-01 and 7.58E-01 and 8.49E-01 and 6.67E-01 and 6.46E-01
HsProRS; Log[inhibitor] (M) -9.708
  normalized TR-FRET signal (dose-response replicates): 8.31E-01 and 9.16E-01 and 9.30E-01 and 9.90E-01 and 7.66E-01 and 7.98E-01
HsProRS; Log[inhibitor] (M) -10.018
  normalized TR-FRET signal (dose-response replicates): 7.34E-01 and 7.78E-01 and 9.27E-01 and 9.57E-01 and 7.69E-01 and 9.42E-01
HsProRS; Log[inhibitor] (M) -10.319
  normalized TR-FRET signal (dose-response replicates): 1.03E+00 and 8.60E-01 and 1.21E+00 and 9.50E-01 and 1.14E+00 and 9.79E-01
HsProRS; Log[inhibitor] (M) -10.62
  normalized TR-FRET signal (dose-response replicates): 1.02E+00 and 8.83E-01 and 9.73E-01 and 1.04E+00 and 9.53E-01 and 9.56E-01
HsProRS; Log[inhibitor] (M) -10.921
  normalized TR-FRET signal (dose-response replicates): 1.01E+00 and 1.12E+00 and 1.14E+00 and 9.45E-01 and 8.05E-01 and 9.06E-01
HsProRS; Log[inhibitor] (M) -11.098
  normalized TR-FRET signal (dose-response replicates): 9.11E-01 and 1.15E+00 and 1.13E+00 and 1.03E+00 and 9.58E-01 and 9.14E-01
[1]; Log[inhibitor] (M) -7.000
  parasite growth, replicate wells (Fig 1b): 1.00E+00
[1]; Log[inhibitor] (M) -7.301
  parasite growth, replicate wells (Fig 1b): 6.00E+00
[1]; Log[inhibitor] (M) -7.602, listed as Halofuginone (1)
  parasite growth, replicate wells (Fig 1b): 2.30E+01 and 2.20E+01 (2×)
[1]; Log[inhibitor] (M) -7.903, listed as Halofuginone (1)
  parasite growth, replicate wells (Fig 1b): 8.60E+01 (2×) and 9.10E+01
[1]; Log[inhibitor] (M) -8.204, listed as Halofuginone (1)
  parasite growth, replicate wells (Fig 1b): 1.04E+02 and 1.02E+02 (2×)
[1]; Log[inhibitor] (M) -8.505, listed as Halofuginone (1)
  parasite growth, replicate wells (Fig 1b): 1.05E+02 and 1.03E+02 and 9.50E+01
[1]; Log[inhibitor] (M) -8.806, listed as Halofuginone (1)
  parasite growth, replicate wells (Fig 1b): 9.20E+01 and 9.40E+01 and 9.50E+01
[1]; Log[inhibitor] (M) -9.107, listed as Halofuginone (1)
  parasite growth, replicate wells (Fig 1b): 9.60E+01 and 9.70E+01 and 9.40E+01
[1]; Log[inhibitor] (M) -9.408, listed as Halofuginone (1)
  parasite growth, replicate wells (Fig 1b): 9.80E+01 and 9.60E+01 and 9.50E+01
[1]; Log[inhibitor] (M) -9.709, listed as Halofuginone (1)
  parasite growth, replicate wells (Fig 1b): 9.90E+01 and 1.00E+02 and 9.80E+01
[1]; Log[inhibitor] (M) -10.010, listed as Halofuginone (1)
  parasite growth, replicate wells (Fig 1b): 1.00E+02 and 9.60E+01 and 9.90E+01
[1]; Log[inhibitor] (M) -10.311, listed as Halofuginone (1)
  parasite growth, replicate wells (Fig 1b): 9.90E+01 (2×) and 1.00E+02
[2]
  tolerance of halofuginone-induced bulk cultures: 10–20 fold
[3]; Log[inhibitor] (M) -5.204
  parasite growth, replicate wells (Fig 1b): 3.00E+00 and 2.00E+00 and 4.00E+00
[3]; Log[inhibitor] (M) -5.505
  parasite growth, replicate wells (Fig 1b): 4.00E+00 (2×) and 3.00E+00
[3]; Log[inhibitor] (M) -5.806
  parasite growth, replicate wells (Fig 1b): 3.00E+00 (2×) and 4.00E+00
[3]; Log[inhibitor] (M) -6.107
  parasite growth, replicate wells (Fig 1b): 6.00E+00 (2×) and 5.00E+00
[3]; Log[inhibitor] (M) -6.408
  parasite growth, replicate wells (Fig 1b): 1.70E+01 (2×) and 1.60E+01
[3]; Log[inhibitor] (M) -6.709
  parasite growth, replicate wells (Fig 1b): 5.40E+01 and 5.50E+01 (2×)
[3]; Log[inhibitor] (M) -7.000
  parasite growth, replicate wells (Fig 1b): 7.70E+01 and 8.00E+01 and 8.50E+01
[3]; Log[inhibitor] (M) -7.010
  parasite growth, replicate wells (Fig 1b): 8.50E+01 and 8.60E+01 and 8.30E+01
[3]; Log[inhibitor] (M) -7.301
  parasite growth, replicate wells (Fig 1b): 9.80E+01 and 1.03E+02 and 9.90E+01
[3]; Log[inhibitor] (M) -7.311
  parasite growth, replicate wells (Fig 1b): 9.50E+01 and 9.00E+01 and 9.10E+01
[3]; Log[inhibitor] (M) -7.602
  parasite growth, replicate wells (Fig 1b): 1.01E+02 and 1.03E+02 and 1.05E+02
[3]; Log[inhibitor] (M) -7.903
  parasite growth, replicate wells (Fig 1b): 1.04E+02 and 1.03E+02 and 1.06E+02
[3]; Log[inhibitor] (M) -8.204
  parasite growth, replicate wells (Fig 1b): 1.05E+02 and 1.07E+02 and 1.03E+02
[3]; Log[inhibitor] (M) -8.505
  parasite growth, replicate wells (Fig 1b): 1.06E+02 and 1.04E+02 and 1.02E+02
PfcProRS
  binding mode with respect to substrates (ATP, proline): ATP-uncompetitive binding
PfcProRS; 500 μM ATP vs 0 μM ATP
  fold increased affinity in the presence of ATP: > 6000 fold
PfcProRS; Log[inhibitor] (M) -5.000
  dose-response signal (normalized), SI Fig 8: 7.25E-01 and 6.60E-01 and 7.89E-01
PfcProRS; Log[inhibitor] (M) -5.258
  dose-response signal (normalized), SI Fig 8: 8.77E-01 and 7.58E-01 and 8.28E-01
PfcProRS; Log[inhibitor] (M) -5.517
  dose-response signal (normalized), SI Fig 8: 8.36E-01 and 8.59E-01 and 9.08E-01
PfcProRS; Log[inhibitor] (M) -5.775
  dose-response signal (normalized), SI Fig 8: 9.71E-01 and 9.45E-01 and 1.00E+00
PfcProRS; Log[inhibitor] (M) -6.018
  dose-response signal (normalized), SI Fig 8: 9.98E-01 and 1.00E+00 and 1.01E+00
PfcProRS; Log[inhibitor] (M) -6.281
  dose-response signal (normalized), SI Fig 8: 9.70E-01 and 1.00E+00 and 9.36E-01
PfcProRS; Log[inhibitor] (M) -6.535
  dose-response signal (normalized), SI Fig 8: 9.87E-01 and 8.91E-01 and 9.43E-01
PfcProRS; Log[inhibitor] (M) -6.796
  dose-response signal (normalized), SI Fig 8: 1.03E+00 (2×) and 1.00E+00
PfcProRS; Log[inhibitor] (M) -7.056
  dose-response signal (normalized), SI Fig 8: 9.55E-01 and 1.03E+00 (2×)
PfcProRS; Log[inhibitor] (M) -7.319
  dose-response signal (normalized), SI Fig 8: 1.02E+00 (2×) and 9.30E-01
PfcProRS; Log[inhibitor] (M) -7.553
  dose-response signal (normalized), SI Fig 8: 9.85E-01 and 1.03E+00 and 9.40E-01
PfcProRS; Log[inhibitor] (M) -7.796
  dose-response signal (normalized), SI Fig 8: 9.66E-01 and 1.04E+00 and 1.00E+00
PfcProRS; Log[inhibitor] (M) -8.097
  dose-response signal (normalized), SI Fig 8: 1.01E+00 and 9.81E-01 and 1.00E+00
PfcProRS; Log[inhibitor] (M) -8.398
  dose-response signal (normalized), SI Fig 8: 9.48E-01 and 1.10E+00 and 1.01E+00
PfcProRS; Log[inhibitor] (M) -8.585
  dose-response signal (normalized), SI Fig 8: 1.08E+00 and 9.61E-01 and 9.66E-01
PfcProRS; SI Fig 16a, values on -log scale
  PfcProRS -- best Kd: 9.298
